Measurements: patent US20210069145A1, “COMPOSITIONS AND METHODS FOR REDUCING A FATTY ACID DESATURATION INDEX IN A SUBJECT IN NEED THEREOF” (Amarin Pharmaceuticals Ireland Limited, priority 2013, published 2021)

System: fatty acid desaturation index (FADI), RBCs
Assay: Fatty acid desaturation index (FADI) ratios in red blood cells, 12-week placebo-controlled study
Type: in vivo, human
Details: 4 g/day, 12 weeks, placebo-adjusted, from baseline
Procedure: A multi-center, placebo-controlled, randomized, double-blind, 12-week study was performed to evaluate the efficacy and safety of >96% E-EPA in patients with fasting triglyceride levels ≥200 mg/dl and <500 mg/dl despite statin therapy (the mean of two qualifying entry values needed to be ≥185 mg/dl and at least one of the values needed to be ≥200 mg/dl). The primary objective of the study was to determine the efficacy of >96% E-EPA 2 g daily and 4 g daily, compared to placebo, in lowering fasting TG levels in patients with high risk for cardiovascular disease and with fasting TG levels ≥200 mg/dl and <500 mg/dl, despite treatment to LDL-C goal on statin therapy.
The population for this study was men and women >18 years of age with a body mass index ≤45 kg/m^2 with fasting TG levels greater than or equal to 200 mg/dl and less than 500 mg/dl and on a stable does of statin therapy (with or without ezetimibe). The statin was atorvostatin, rosuvastatin or simvastatin. The dose of statin must have been stable for ≥4 weeks prior to the LDL-C/TG baseline qualifying measurement for randomization. The statin dose was optimized such that the patients are at their LDL-C goal at the LDL-C/TG baseline qualifying measurements. The same statin at the same dose was continued until the study ended. […]
The primary efficacy variable for the double-blind treatment period was percent change in TG from baseline to Week 12 endpoint. The secondary efficacy variables for the double-blind treatment period included the following: • Percent changes in total cholesterol (TC), high-density lipoprotein cholesterol (HDL-C), LDL-C, calculated non-HDL-C, and very low-density lipoprotein cholesterol (VLDL-C) from baseline to Week 12 endpoint; • Percent change in very low-density lipoprotein TG from baseline to Week 12; • Percent changes in apolipoprotein A-I (apo A-I), apolipoprotein B (apo B), and apo A-I/apo B ratio from baseline to Week 12; • Percent changes in lipoprotein(a) from baseline to Week 12; • Percent changes in LDL particle number and size, measured by nuclear magnetic resonance, from baseline to Week 12; • Percent change in remnant-like particle cholesterol from baseline to Week 12; • Percent change in oxidized LDL from baseline to Week 12; • Changes in FPG and HbA1c from baseline to Week 12; • Change in insulin resistance, as assessed by the homeostasis model index insulin resistance, from baseline to Week 12; • Percent change in lipoprotein associated phospholipase A2 (Lp-PLA2) from baseline to Week 12; • Change in intracellular adhesion molecule-1 from baseline to Week 12; • Change in interleukin-2 from baseline to Week 12; • Change in plasminogen activator inhibitor-1 from baseline to Week 12. […]

[1] = listed as Ethyl Eicosapentaenoate

`CC/C=C\C/C=C\C/C=C\C/C=C\C/C=C\CCCC(=O)OCC` [ethyl eicosapentaenoate, all-cis eicosa-5,8,11,14,17-pentaenoic acid ethyl ester] was tested, and the “FADI-16 (Palmitoleic acid/Palmitic acid, C16:1/C16:0) % Change, RBCs” value was “significantly reduced”, the “FADI-18 (Oleic acid/Stearic Acid, C18:1/C18:0) % Change, RBCs” value was “significantly reduced” and the “FADI-16 (Palmitoleic acid/Palmitic acid, C16:1/C16:0) % Change, RBCs” value [1] was −15.7%. For the same molecule, the “FADI-18 (Oleic acid/Stearic Acid, C18:1/C18:0) % Change, RBCs” value [1] was −3.1%.
